Read-outs that look alike come from different tables or passages of the source. Marks after values point to notes of the source that are not given here.
System: biomarker (antibody) in serum samples from patients with symptoms of tuberculosis
Assay type: binding, human

Q: What does the source list for CCCCCCCCCCCCCCCCCCCCCCCC[C@@H](C(=O)OC[C@H]1O[C@H](OC)[C@@H](O)[C@@H]1O)[C@H](O)CCCCCCCCCCC[C@H]1CC1CCCCCCCCCCCCCC[C@H]1C[C@H]1CCCCCCCCCCCCCCCCCCCC (some centres unmarked) [Antigen F]?
A: ELISA absorbance at 492 nm (serum sample 1 TB+): 0.74*; ELISA absorbance at 492 nm (serum sample 2 TB+): 0.76*; ELISA absorbance at 492 nm (serum sample 3 TB+): 0.99*; ELISA absorbance at 492 nm (serum sample 4 TB+): 0.97*; ELISA absorbance at 492 nm (serum sample 5 TB+): 0.99*; ELISA absorbance at 492 nm (serum sample 6 TB+): 1.39*; ELISA absorbance at 492 nm (serum sample 7 TB+): 1.97*; ELISA absorbance at 492 nm (serum sample 8 TB+): 1.67*; ELISA absorbance at 492 nm (serum sample 9 TB+): 1.09*; ELISA absorbance at 492 nm (serum sample 10 TB−): 0.59; ELISA absorbance at 492 nm (serum sample 11 TB−): 0.92*; ELISA absorbance at 492 nm (serum sample 12 TB−): 0.84*; ELISA absorbance at 492 nm (serum sample 13 TB−): 0.60; ELISA absorbance at 492 nm (serum sample 14 TB−): 1.30*; ELISA absorbance at 492 nm (serum sample 15 TB−): 0.64; ELISA absorbance at 492 nm (serum sample 16 TB−): 0.56; ELISA absorbance at 492 nm (serum sample 17 TB−): 0.81*; ELISA absorbance at 492 nm (serum sample 18 TB−): 0.68; ELISA absorbance at 492 nm (serum sample 19 TB−): 0.71*; ELISA absorbance at 492 nm (serum sample 20 TB−): 1.03*; ELISA absorbance at 492 nm (serum sample 21 TB−): 0.61; ELISA absorbance at 492 nm (serum sample 22 TB−): 0.66; ELISA absorbance at 492 nm (serum sample 23 TB−): 0.81*; ELISA absorbance at 492 nm (serum sample 24 TB−): 0.62; ELISA absorbance at 492 nm (serum sample 25 TB−): 0.21; ELISA absorbance at 492 nm (serum sample 26 TB−): 0.72; ELISA absorbance at 492 nm (serum sample 27 TB−): 0.61; ELISA absorbance at 492 nm (serum sample 28 TB−): 0.38; ELISA absorbance at 492 nm (serum sample 29 TB−): 0.41; ELISA absorbance at 492 nm (serum sample 30 TB−): 0.39; ELISA absorbance at 492 nm (serum sample 31 TB−): 0.51; ELISA absorbance at 492 nm (serum sample 32 TB−): 0.91*; ELISA absorbance at 492 nm (serum sample 33 TB−): 0.42; ELISA absorbance at 492 nm (serum sample 34 TB−): 0.49; ELISA absorbance at 492 nm (serum sample 35 TB−): 0.38; ELISA absorbance at 492 nm (serum sample 36 TB−): 0.28; ELISA absorbance at 492 nm (serum sample 37 TB−): 0.55; ELISA absorbance at 492 nm (serum sample 38 TB−): 0.52; ELISA absorbance at 492 nm (serum sample 39 TB−): 0.35; ELISA absorbance at 492 nm (serum sample 40 TB−): 0.35; ELISA absorbance at 492 nm (serum sample 41 TB−): 0.66; ELISA absorbance at 492 nm (serum sample 42 TB−): 0.55; ELISA absorbance at 492 nm (serum sample 43 TB−): 0.30; ELISA absorbance at 492 nm (serum sample 44 TB−): 0.98*; ELISA absorbance at 492 nm (serum sample 45 TB−): 0.43; ELISA absorbance at 492 nm (serum sample 46 TB−): 0.31; ELISA absorbance at 492 nm (serum sample 47 TB−): 0.56; ELISA absorbance at 492 nm (serum sample 48 TB−): 0.32; ELISA absorbance at 492 nm (serum sample 49 TB−): 0.51; ELISA absorbance at 492 nm (serum sample 50 TB−): 0.37; ELISA absorbance at 492 nm (serum sample 51 TB−): 0.21; ELISA absorbance at 492 nm (serum sample 52 TB−): 0.36; ELISA absorbance at 492 nm (serum sample 53 TB−): 0.26; ELISA absorbance at 492 nm (serum sample 54 TB−): 0.27; ELISA absorbance at 492 nm (serum sample 55 TB−): 0.27; ELISA absorbance at 492 nm (serum sample 56 TB−): 0.73*; ELISA absorbance at 492 nm (serum sample 57 TB−): 0.37; ELISA absorbance at 492 nm (serum sample 58 TB−): 0.41; ELISA absorbance at 492 nm (serum sample 59 TB−): 0.45; ELISA absorbance at 492 nm (serum sample 60 TB−): 0.44; ELISA absorbance at 492 nm (serum sample 61 TB−): 0.41; ELISA absorbance at 492 nm (serum sample 62 TB−): 0.30; ELISA absorbance at 492 nm (serum sample 63 TB−): 0.25; ELISA absorbance at 492 nm (serum sample 64 TB−): 0.29

Q: Which “ELISA absorbance at 492 nm” value (serum sample 1 TB+) does the source give for CCCCCCCCCCCCCCCCCCCCCC[C@@H](C(=O)OC[C@H]1O[C@H](OC)[C@@H](O)[C@@H]1O)[C@H](O)CCCCCCCCCCCCCCCCC[C@@H]1C[C@@H]1CCCCCCCCCCCCCCCC[C@@H](OC)[C@@H](C)CCCCCCCCCCCCCCCCCC [Antigen A] here?
A: The value was 0.28*.

Q: What about the “ELISA absorbance at 492 nm” value (serum sample 2 TB+) of the same compound?
A: Its value is 0.29*.

Q: What about the “ELISA absorbance at 492 nm” value (serum sample 3 TB+) of the same compound?
A: Its value is 0.30*.

Q: And the “ELISA absorbance at 492 nm” value (serum sample 4 TB+)?
A: The value was 0.50*.

Q: What about the “ELISA absorbance at 492 nm” value (serum sample 5 TB+) of the same compound?
A: The value was 0.28*.

Q: And the “ELISA absorbance at 492 nm” value (serum sample 6 TB+)?
A: Its value is 0.28*.

Q: And the “ELISA absorbance at 492 nm” value (serum sample 7 TB+)?
A: Its value is 0.93*.

Q: And the “ELISA absorbance at 492 nm” value (serum sample 8 TB+)?
A: Its value is 0.47*.

Q: And the “ELISA absorbance at 492 nm” value (serum sample 9 TB+)?
A: Its value is 0.29*.

Q: What about the “ELISA absorbance at 492 nm” value (serum sample 10 TB−) of the same compound?
A: Its value is 0.21.

Q: And the “ELISA absorbance at 492 nm” value (serum sample 11 TB−)?
A: Its value is 0.20.

Q: And the “ELISA absorbance at 492 nm” value (serum sample 12 TB−)?
A: The value was 0.18.

Q: And the “ELISA absorbance at 492 nm” value (serum sample 13 TB−)?
A: Its value is 0.22.

Q: What about the “ELISA absorbance at 492 nm” value (serum sample 14 TB−) of the same compound?
A: Its value is 0.49*.

Q: What about the “ELISA absorbance at 492 nm” value (serum sample 15 TB−) of the same compound?
A: Its value is 0.23.

Q: And the “ELISA absorbance at 492 nm” value (serum sample 16 TB−)?
A: Its value is 0.31*.

Q: What about the “ELISA absorbance at 492 nm” value (serum sample 17 TB−) of the same compound?
A: The value was 0.52*.

Q: And the “ELISA absorbance at 492 nm” value (serum sample 18 TB−)?
A: The value was 0.28*.

Q: What about the “ELISA absorbance at 492 nm” value (serum sample 19 TB−) of the same compound?
A: Its value is 0.20.

Q: And the “ELISA absorbance at 492 nm” value (serum sample 20 TB−)?
A: Its value is 0.34*.

Q: And the “ELISA absorbance at 492 nm” value (serum sample 21 TB−)?
A: Its value is 0.47*.

Q: What about the “ELISA absorbance at 492 nm” value (serum sample 22 TB−) of the same compound?
A: The value was 0.23.

Q: And the “ELISA absorbance at 492 nm” value (serum sample 23 TB−)?
A: Its value is 0.25.

Q: What about the “ELISA absorbance at 492 nm” value (serum sample 24 TB−) of the same compound?
A: Its value is 0.29*.

Q: And the “ELISA absorbance at 492 nm” value (serum sample 25 TB−)?
A: The value was 0.18.

Q: What about the “ELISA absorbance at 492 nm” value (serum sample 26 TB−) of the same compound?
A: The value was 0.52*.

Q: And the “ELISA absorbance at 492 nm” value (serum sample 27 TB−)?
A: Its value is 0.31*.

Q: What about the “ELISA absorbance at 492 nm” value (serum sample 28 TB−) of the same compound?
A: The value was 0.28*.

Q: What about the “ELISA absorbance at 492 nm” value (serum sample 29 TB−) of the same compound?
A: The value was 0.28*.

Q: What about the “ELISA absorbance at 492 nm” value (serum sample 30 TB−) of the same compound?
A: Its value is 0.32*.

Q: What about the “ELISA absorbance at 492 nm” value (serum sample 31 TB−) of the same compound?
A: The value was 0.31*.

Q: And the “ELISA absorbance at 492 nm” value (serum sample 32 TB−)?
A: Its value is 0.34*.

Q: What about the “ELISA absorbance at 492 nm” value (serum sample 33 TB−) of the same compound?
A: The value was 0.18.

Q: What about the “ELISA absorbance at 492 nm” value (serum sample 34 TB−) of the same compound?
A: The value was 0.39*.

Q: What about the “ELISA absorbance at 492 nm” value (serum sample 35 TB−) of the same compound?
A: The value was 0.23.

Q: And the “ELISA absorbance at 492 nm” value (serum sample 36 TB−)?
A: The value was 0.11.

Q: And the “ELISA absorbance at 492 nm” value (serum sample 37 TB−)?
A: The value was 0.28*.

Q: And the “ELISA absorbance at 492 nm” value (serum sample 38 TB−)?
A: Its value is 0.29*.

Q: And the “ELISA absorbance at 492 nm” value (serum sample 39 TB−)?
A: Its value is 0.21.

Q: What about the “ELISA absorbance at 492 nm” value (serum sample 40 TB−) of the same compound?
A: The value was 0.18.

Q: What about the “ELISA absorbance at 492 nm” value (serum sample 41 TB−) of the same compound?
A: The value was 0.18.

Q: And the “ELISA absorbance at 492 nm” value (serum sample 42 TB−)?
A: Its value is 0.30*.

Q: And the “ELISA absorbance at 492 nm” value (serum sample 43 TB−)?
A: The value was 0.25.

Q: What about the “ELISA absorbance at 492 nm” value (serum sample 44 TB−) of the same compound?
A: Its value is 0.41*.

Q: And the “ELISA absorbance at 492 nm” value (serum sample 45 TB−)?
A: The value was 0.33*.

Q: And the “ELISA absorbance at 492 nm” value (serum sample 46 TB−)?
A: Its value is 0.13.

Q: And the “ELISA absorbance at 492 nm” value (serum sample 47 TB−)?
A: The value was 0.34*.

Q: What about the “ELISA absorbance at 492 nm” value (serum sample 48 TB−) of the same compound?
A: Its value is 0.32*.

Q: And the “ELISA absorbance at 492 nm” value (serum sample 49 TB−)?
A: The value was 0.38*.

Q: What about the “ELISA absorbance at 492 nm” value (serum sample 50 TB−) of the same compound?
A: Its value is 0.35*.

Q: What about the “ELISA absorbance at 492 nm” value (serum sample 51 TB−) of the same compound?
A: Its value is 0.11.

Q: What about the “ELISA absorbance at 492 nm” value (serum sample 52 TB−) of the same compound?
A: Its value is 0.21.

Q: And the “ELISA absorbance at 492 nm” value (serum sample 53 TB−)?
A: Its value is 0.16.

Q: And the “ELISA absorbance at 492 nm” value (serum sample 54 TB−)?
A: The value was 0.17.

Q: What about the “ELISA absorbance at 492 nm” value (serum sample 55 TB−) of the same compound?
A: Its value is 0.24.

Q: What about the “ELISA absorbance at 492 nm” value (serum sample 56 TB−) of the same compound?
A: The value was 0.68*.

Q: What about the “ELISA absorbance at 492 nm” value (serum sample 57 TB−) of the same compound?
A: The value was 0.25.

Q: And the “ELISA absorbance at 492 nm” value (serum sample 58 TB−)?
A: Its value is 0.25.

Q: What about the “ELISA absorbance at 492 nm” value (serum sample 59 TB−) of the same compound?
A: The value was 0.33*.

Q: What about the “ELISA absorbance at 492 nm” value (serum sample 60 TB−) of the same compound?
A: Its value is 0.37*.

Q: And the “ELISA absorbance at 492 nm” value (serum sample 61 TB−)?
A: The value was 0.52*.

Q: And the “ELISA absorbance at 492 nm” value (serum sample 62 TB−)?
A: The value was 0.19.

Q: And the “ELISA absorbance at 492 nm” value (serum sample 63 TB−)?
A: The value was 0.16.

Q: And the “ELISA absorbance at 492 nm” value (serum sample 64 TB−)?
A: The value was 2.50*.

— patent US11162944B2, “Compositions and methods” (priority 2015, dated 2021)
